Assay results taken from publication PMC9848257, “Design and synthesis of novel rigid dibenzo[b,f]azepines through ring closure technique as promising anticancer candidates against leukaemia and acting as selective topoisomerase II inhibitors and DNA intercalators” (Journal of Enzyme Inhibition and Medicinal Chemistry, 2023).

What was measured:
[1] = tested on: HL-60(TB); assay: NCI-60 one-dose screen, HL-60(TB); format: cell-based; conditions: Homo sapiens, leukaemia, single dose 10 μM, read-out: Growth inhibition %
Protocol: (§1) Anti-proliferative effects of the counterparts 4a–g and 5a–g were screened against 60 human cancer cell lines, following the Developmental Therapeutics Program protocol, National Cancer Institute[35].
(§2) The anti-tumour activity of the fourteen synthesised congeners was investigated at the NCI against a panel of 60 cancer cell lines (NCI-60 Cell One-Dose Screen). The tested dibenzo[b,f]azepine derivatives were screened at a single dose level (10 μM), Table 1.

[2] = tested on: A549-ATCC; assay: NCI-60 one-dose screen, A549-ATCC; format: cell-based; conditions: Homo sapiens, non-small cell lung cancer, single dose 10 μM, read-out: Growth inhibition %
Protocol: as §1, §2

[3] = tested on: NCI-H226; assay: NCI-60 one-dose screen, NCI-H226; format: cell-based; conditions: Homo sapiens; NCI-H226, non-small cell lung cancer; single dose 10 μM; read-out: Growth inhibition %
Protocol: as §1, §2

[4] = tested on: NCI-H23; assay: NCI-60 one-dose screen, NCI-H23; format: cell-based; conditions: Homo sapiens; NCI-H23, non-small cell lung cancer; single dose 10 μM; read-out: Growth inhibition %
Protocol: as §1, §2

[5] = tested on: NCI-H460; assay: NCI-60 one-dose screen, NCI-H460; format: cell-based; conditions: Homo sapiens; NCI-H460, non-small cell lung cancer; single dose 10 μM; read-out: Growth inhibition %
Protocol: as §1, §2

[6] = tested on: COLO 205; assay: NCI-60 one-dose screen, COLO 205; format: cell-based; conditions: Homo sapiens; COLO 205, colon cancer; single dose 10 μM; read-out: Growth inhibition %
Protocol: as §1, §2

[7] = tested on: HCC-2998; assay: NCI-60 one-dose screen, HCC-2998; format: cell-based; conditions: Homo sapiens; HCC-2998, colon cancer; single dose 10 μM; read-out: Growth inhibition %
Protocol: as §1, §2

[8] = tested on: HCT-116; assay: NCI-60 one-dose screen, HCT-116; format: cell-based; conditions: Homo sapiens; HCT-116, colon cancer; single dose 10 μM; read-out: Growth inhibition %
Protocol: as §1, §2

[9] = tested on: SF-539; assay: NCI-60 one-dose screen, SF-539; format: cell-based; conditions: Homo sapiens; SF-539, CNS cancer; single dose 10 μM; read-out: Growth inhibition %
Protocol: as §1, §2

[10] = tested on: SNB-19; assay: NCI-60 one-dose screen, SNB-19; format: cell-based; conditions: Homo sapiens; SNB-19, CNS cancer; single dose 10 μM; read-out: Growth inhibition %
Protocol: as §1, §2

[11] = tested on: M14; assay: NCI-60 one-dose screen, M14; format: cell-based; conditions: Homo sapiens; M14, melanoma; single dose 10 μM; read-out: Growth inhibition %
Protocol: as §1, §2

[12] = tested on: MDA-MB-435; assay: NCI-60 one-dose screen, MDA-MB-435; format: cell-based; conditions: Homo sapiens; MDA-MB-435, melanoma; single dose 10 μM; read-out: Growth inhibition %
Protocol: as §1, §2

[13] = tested on: SK-MEL-2; assay: NCI-60 one-dose screen, SK-MEL-2; format: cell-based; conditions: Homo sapiens; SK-MEL-2, melanoma; single dose 10 μM; read-out: Growth inhibition %
Protocol: as §1, §2

[14] = tested on: SK-MEL-28; assay: NCI-60 one-dose screen, SK-MEL-28; format: cell-based; conditions: Homo sapiens; SK-MEL-28, melanoma; single dose 10 μM; read-out: Growth inhibition %
Protocol: as §1, §2

[15] = tested on: IGROV1; assay: NCI-60 one-dose screen, IGROV1; format: cell-based; conditions: Homo sapiens, IGROV-1; IGROV1, ovarian cancer; single dose 10 μM; read-out: Growth inhibition %
Protocol: as §1, §2

[16] = tested on: OVCAR-4; assay: NCI-60 one-dose screen, OVCAR-4; format: cell-based; conditions: Homo sapiens; OVCAR-4, ovarian cancer; single dose 10 μM; read-out: Growth inhibition %
Protocol: as §1, §2

[17] = tested on: OVCAR-5; assay: NCI-60 one-dose screen, OVCAR-5; format: cell-based; conditions: Homo sapiens; OVCAR-5, ovarian cancer; single dose 10 μM; read-out: Growth inhibition %
Protocol: as §1, §2

[18] = tested on: OVCAR-8; assay: NCI-60 one-dose screen, OVCAR-8; format: cell-based; conditions: Homo sapiens; OVCAR-8, ovarian cancer; single dose 10 μM; read-out: Growth inhibition %
Protocol: as §1, §2

[19] = tested on: A498; assay: NCI-60 one-dose screen, A498; format: cell-based; conditions: Homo sapiens; A498, renal cancer; single dose 10 μM; read-out: Growth inhibition %
Protocol: as §1, §2

[20] = tested on: CAKI-1; assay: NCI-60 one-dose screen, CAKI-1; format: cell-based; conditions: Homo sapiens; CAKI-1, renal cancer; single dose 10 μM; read-out: Growth inhibition %
Protocol: as §1, §2

[21] = tested on: RXF 393; assay: NCI-60 one-dose screen, RXF 393; format: cell-based; conditions: Homo sapiens; RXF 393, renal cancer; single dose 10 μM; read-out: Growth inhibition %
Protocol: as §1, §2

[22] = tested on: SN12C; assay: NCI-60 one-dose screen, SN12C; format: cell-based; conditions: Homo sapiens, renal cancer, single dose 10 μM, read-out: Growth inhibition %
Protocol: as §1, §2

[23] = tested on: MDA-MB-231-ATCC; assay: NCI-60 one-dose screen, MDA-MB-231-ATCC; format: cell-based; conditions: Homo sapiens, breast cancer, single dose 10 μM, read-out: Growth inhibition %
Protocol: as §1, §2

[24] = tested on: T-47D; assay: NCI-60 one-dose screen, T-47D; format: cell-based; conditions: Homo sapiens, T47D, breast cancer, single dose 10 μM, read-out: Growth inhibition %
Protocol: as §1, §2

[25] = target: topoisomerase II; assay: Topoisomerase II inhibitory assay; format: biochemical; conditions: for IC50: in vitro, doxorubicin co-assayed as reference; for Percentage of topoisomerase II inhibition: at the concentration of 100 µM (Figure 3A)
Protocol: Therefore, following the procedure reported by Patra et al., the topoisomerase II activity was evaluated.

[26] = Cytotoxic effect against normal cell line; format: cell-based; conditions: human, normal cell line PSC-800-011; read-out: Cytotoxicity IC50, PSC-800-011
Protocol: Following, the cytotoxic effect of compound 5e against a normal cell line, PSC-800–011, was also assigned to evaluate the selectivity of the compound towards the cancer cell lines. […] However, the selectivity index (SI) of compound 5e was also calculated to confirm its selectivity. It was known that any sample that has an SI value higher than 3 will be considered to have high selectivity.

## Cc1ccc(-c2nnc(N3c4ccccc4C=Cc4ccccc43)o2)cc1 [Compound 5d, 2-(5 h-Dibenzo[b,f]azepin-5-yl)-5-(p-tolyl)-1,3,4-oxadiazole]
[1]
  inhibition at 10 µM: 33.8%
[2]
  inhibition at 10 µM: 12.4%
[3]
  inhibition at 10 µM: 21.6%
[4]
  inhibition at 10 µM: < 10%
[5]
  inhibition at 10 µM: 58.6%
[6]
  inhibition at 10 µM: 19.4%
[7]
  inhibition at 10 µM: < 10%
[8]
  inhibition at 10 µM: 45.8%
[9]
  inhibition at 10 µM: < 10%
[10]
  inhibition at 10 µM: < 10%
[11]
  inhibition at 10 µM: < 10%
[12]
  inhibition at 10 µM: < 10%
[13]
  inhibition at 10 µM: < 10%
[14]
  inhibition at 10 µM: < 10%
[15]
  inhibition at 10 µM: < 10%
[16]
  inhibition at 10 µM: < 10%
[17]
  inhibition at 10 µM: < 10%
[18]
  inhibition at 10 µM: 11.5%
[19]
  inhibition at 10 µM: < 10%
[20]
  inhibition at 10 µM: 16.2%
[21]
  inhibition at 10 µM: < 10%
[22]
  inhibition at 10 µM: < 10%
[23]
  inhibition at 10 µM: 9.21%
[24]
  inhibition at 10 µM: < 10%
[25]
  IC50: 16.8 µM

## O=[N+]([O-])c1ccc(-c2nnc(N3c4ccccc4C=Cc4ccccc43)o2)cc1 [Compound 5e, 2-(5 h-Dibenzo[b,f]azepin-5-yl)-5–(4-nitrophenyl)-1,3,4-oxadiazole]
[1]
  inhibition at 10 µM: 30.1%
[2]
  inhibition at 10 µM: 16.5%
[3]
  inhibition at 10 µM: 13.7%
[4]
  inhibition at 10 µM: < 10%
[5]
  inhibition at 10 µM: 1.84%
[6]
  inhibition at 10 µM: < 10%
[7]
  inhibition at 10 µM: < 10%
[8]
  inhibition at 10 µM: < 10%
[9]
  inhibition at 10 µM: < 10%
[10]
  inhibition at 10 µM: < 10%
[11]
  inhibition at 10 µM: < 10%
[12]
  inhibition at 10 µM: < 10%
[13]
  inhibition at 10 µM: < 10%
[14]
  inhibition at 10 µM: < 10%
[15]
  inhibition at 10 µM: < 10%
[16]
  inhibition at 10 µM: 21.8%
[17]
  inhibition at 10 µM: < 10%
[18]
  inhibition at 10 µM: 1.15%
[19]
  inhibition at 10 µM: 14.8%
[20]
  inhibition at 10 µM: 29.7%
[21]
  inhibition at 10 µM: < 10%
[22]
  inhibition at 10 µM: < 10%
[23]
  inhibition at 10 µM: 15.3%
[24]
  inhibition at 10 µM: 18.4%
[25]
  Percentage of topoisomerase II inhibition: 89%
  IC50: 6.36 µM
[26]
  IC50: 43.9 ± 2.68 µM

## C1=Cc2ccccc2N(c2nnc(-c3ccc4ccccc4c3)o2)c2ccccc21 [Compound 5f, 2-(5 h-Dibenzo[b,f]azepin-5-yl)-5-(naphthalen-2-yl)-1,3,4-oxadiazole]
[1]
  inhibition at 10 µM: < 10%
[2]
  inhibition at 10 µM: 28.2%
[3]
  inhibition at 10 µM: 21.4%
[4]
  inhibition at 10 µM: 12.4%
[5]
  inhibition at 10 µM: 25.1%
[6]
  inhibition at 10 µM: < 10%
[7]
  inhibition at 10 µM: < 10%
[8]
  inhibition at 10 µM: 27.3%
[9]
  inhibition at 10 µM: < 10%
[10]
  inhibition at 10 µM: < 10%
[11]
  inhibition at 10 µM: < 10%
[12]
  inhibition at 10 µM: < 10%
[13]
  inhibition at 10 µM: < 10%
[14]
  inhibition at 10 µM: < 10%
[15]
  inhibition at 10 µM: 29.1%
[16]
  inhibition at 10 µM: < 10%
[17]
  inhibition at 10 µM: < 10%
[18]
  inhibition at 10 µM: 9.31%
[19]
  inhibition at 10 µM: < 10%
[20]
  inhibition at 10 µM: 33.1%
[21]
  inhibition at 10 µM: 10.4%
[22]
  inhibition at 10 µM: 15.7%
[23]
  inhibition at 10 µM: < 10%
[24]
  inhibition at 10 µM: 18.3%
[25]
  Percentage of topoisomerase II inhibition: 88%
  IC50: 9.56 µM

## C1=Cc2ccccc2N(c2nnc(Cc3ccccc3)o2)c2ccccc21 [Compound 5g, 2-Benzyl-5-(5H-dibenzo[b,f]azepin-5-yl)-1,3,4-oxadiazole]
[1]
  inhibition at 10 µM: 10.6%
[2]
  inhibition at 10 µM: 24.7%
[3]
  inhibition at 10 µM: < 10%
[4]
  inhibition at 10 µM: < 10%
[5]
  inhibition at 10 µM: 17.4%
[6]
  inhibition at 10 µM: < 10%
[7]
  inhibition at 10 µM: < 10%
[8]
  inhibition at 10 µM: 31.4%
[9]
  inhibition at 10 µM: 11.5%
[10]
  inhibition at 10 µM: < 10%
[11]
  inhibition at 10 µM: < 10%
[12]
  inhibition at 10 µM: < 10%
[13]
  inhibition at 10 µM: < 10%
[14]
  inhibition at 10 µM: < 10%
[15]
  inhibition at 10 µM: < 10%
[16]
  inhibition at 10 µM: < 10%
[17]
  inhibition at 10 µM: < 10%
[18]
  inhibition at 10 µM: 16.5%
[19]
  inhibition at 10 µM: < 10%
[20]
  inhibition at 10 µM: < 10%
[21]
  inhibition at 10 µM: < 10%
[22]
  inhibition at 10 µM: < 10%
[23]
  inhibition at 10 µM: < 10%
[24]
  inhibition at 10 µM: 12%
[25]
  IC50: 18.9 µM
